From PubChem BioAssay (NCI)
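Each compound was tested at five concentrations against cells in 96-well plates for 48 hours. TGI is the concentration that stops growth completely.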

Columns and labels:
Experiment in all cases: inhibition of tumour cell growth, NCI panel, 48 h
KM12 colon = system: KM12 colon
HOP-92 NSCLC = system: HOP-92 NSCLC
UACC-257 melanoma = system: UACC-257 melanoma
SN12C renal = system: SN12C renal
MDA-MB-231 breast = system: MDA-MB-231 breast
SK-OV-3 ovarian = system: SK-OV-3 ovarian
UACC-62 melanoma = system: UACC-62 melanoma
COLO 205 colon = system: COLO 205 colon
TK-10 renal = system: TK-10 renal
HCT-116 colon = system: HCT-116 colon
HOP-62 NSCLC = system: HOP-62 NSCLC
CAKI-1 renal = system: CAKI-1 renal
RPMI-8226 leukemia = system: RPMI-8226 leukemia
MOLT-4 leukemia = system: MOLT-4 leukemia
OVCAR-8 ovarian = system: OVCAR-8 ovarian
U251 CNS = system: U251 CNS
DU-145 prostate = system: DU-145 prostate
HCC-2998 colon = system: HCC-2998 colon
A498 renal = system: A498 renal

| SMILES | TGI (KM12 colon) [µM] | TGI (HOP-92 NSCLC) [µM] | TGI (UACC-257 melanoma) [µM] | TGI (SN12C renal) [µM] | TGI (MDA-MB-231 breast) [µM] | TGI (SK-OV-3 ovarian) [µM] | TGI (UACC-62 melanoma) [µM] | TGI (COLO 205 colon) [µM] | TGI (TK-10 renal) [µM] | TGI (HCT-116 colon) [µM] | TGI (HOP-62 NSCLC) [µM] | TGI (CAKI-1 renal) [µM] | TGI (RPMI-8226 leukemia) [µM] | TGI (MOLT-4 leukemia) [µM] | TGI (OVCAR-8 ovarian) [µM] | TGI (U251 CNS) [µM] | TGI (DU-145 prostate) [µM] | TGI (HCC-2998 colon) [µM] | TGI (A498 renal) [µM] |
| --- | --- | --- | --- | --- | --- | --- | --- | --- | --- | --- | --- | --- | --- | --- | --- | --- | --- | --- | --- |
| O=c1cc(CO)n(CCc2c[nH]c3ccccc23)cc1O | > 100 | 99.7 | > 100 | > 100 | > 100 | > 100 | > 100 | > 100 | > 100 | > 100 | > 100 | > 100 | > 100 | 47.8 | > 100 | > 100 | 83.3 |  |  |
| COc1ccc(-c2cc(-c3ccc(Cl)cc3)n(C3OC(CO)C(O)C(O)C3O)c(=S)c2C#N)cc1 (stereo not given) | > 100 | > 100 | > 100 | > 100 | > 100 | > 100 | > 100 | > 100 | 82.8 | > 100 | > 100 |  | > 100 | > 100 | > 100 | > 100 | > 100 | > 100 |  |
| Cc1cc(C)nc(NS(=O)(=O)c2ccc(NN=c3c4ccccc4n(C)c4ccccc34)cc2)n1 | > 100 | > 100 | > 100 | > 100 | > 100 | > 100 | > 100 | > 100 | > 100 | > 100 | > 100 | > 100 | > 100 | 79.6 | > 100 | > 100 | > 100 | 89.8 |  |
| C=C(C)[C@@H]1C[C@H]2O[C@](O)(C(=C)CC(=O)/C=C(/C)C[C@@H]3OC(=O)[C@]24O[C@@H]34)[C@H]1O | > 100 |  | > 100 | > 100 | > 100 | > 100 | > 100 | > 100 | > 100 | > 100 | > 100 | > 100 | > 100 | > 100 | > 100 | > 100 | > 100 | > 100 | > 100 |
| CCC(CS(=O)(=O)O)[N+](=O)[O-] (stereo not given) | > 100 |  | > 100 | > 100 | > 100 | > 100 | > 100 | > 100 | > 100 | > 100 | > 100 | > 100 | > 100 | > 100 | > 100 | > 100 | > 100 | > 100 | > 100 |
| Cc1cccc(-n2c(C)nc3ccc(NC4OC(CO)C(O)C(O)C4O)cc3c2=O)c1 (stereo not given) | > 100 |  | > 100 | > 100 | > 100 |  | > 100 | > 100 | > 100 | > 100 | > 100 | > 100 | > 100 | > 100 | > 100 | > 100 | > 100 | > 100 | > 100 |
| CN1CCC(CNC(=O)CCCCCCCCC(=O)NCC2(c3ccccc3)CCN(C)CC2)(c2ccccc2)CC1 | > 100 |  | > 100 | > 100 | > 100 | > 100 | > 100 | > 100 | > 100 | > 100 | > 100 |  | > 100 | > 100 | > 100 | > 100 | > 100 | > 100 | > 100 |
| CC1(C)OCC2(CO1)CSCCCSCC1(COC(C)(C)OC1)CSCCCSC2 | > 100 | > 100 | > 100 | > 100 | > 100 | > 100 | > 100 | > 100 | > 100 | > 100 | > 100 |  | > 100 | > 100 | > 100 | > 100 | > 100 | > 100 |  |
| [N-]=[N+]=Nc1ccc(NCCCCCC(=O)ON2C(=O)CCC2=O)c([N+](=O)[O-])c1 | > 100 | 87.6 | > 100 | > 100 | > 100 | > 100 | > 100 | > 100 | > 100 | > 100 | > 100 | > 100 |  | > 100 | > 100 | > 100 | > 100 |  |  |
| O=C(O)CN=C(C(=NCC(=O)O)c1ccccc1)c1ccccc1 | > 100 |  | > 100 | > 100 | > 100 | > 100 | > 100 | > 100 | > 100 | > 100 | > 100 | > 100 | > 100 | > 100 | > 100 | > 100 | > 100 | > 100 | > 100 |
| Cc1cccc2[nH]c3cc(O)cc(O)c3c(=O)c12 | > 10 | > 10 | > 10 | > 10 | > 10 | > 10 | > 10 | > 10 | > 10 | > 10 | > 10 | > 10 | > 10 | > 10 | > 10 | > 10 | > 10 |  |  |
